Results as given in publication PMC10666548, “Identification of the bacterial metabolite aerugine as potential trigger of human dopaminergic neurodegeneration” (Environment international, 2023).
Read-outs that look alike come from different tables or passages of the source.

Experiments:
[1] = Cytotoxicity to mature (d6) LUHMES neurons, calcein-AM & H-33342 high content imaging; type: cell-based, human; settings: human, mature LUHMES d6, 24 h exposure; read-out: EC50 (half-maximal cytotoxic potency), cell viability
Description: (§1) For toxicity assessment of mature LUHMES neurons, precursor cells were pre-differentiated for 2 days in cell culture flasks pre-coated as described above and differentiation medium. Then, 45′000 cells per well were seeded in differentiation medium into standard 96-well plates pre-coated as described above. They were incubated at 37 °C and 5% CO2 for 4 days before compound treatment. At this time, cells were >99% post-mitotic and had established an extensive neurite network ([Scholz et al., 2011]) The cell viability was assessed via the Calcein/Hoechst readout, the LDH assay and the resazurin reduction assay.
(§2) Neurite area (NA) and viability (V) were assessed as described previously ([Stiegler et al., 2011]). In brief, cells were stained with 1 μM calcein-AM and 1 μg/ml H-33342 for 30 min at 37 °C and 5% CO2. Image acquisition was performed using an Array-Scan VTI HCS Reader (Cellomics, PA, USA) equipped with a Hamamatsu ORCA-ER camera. 10 fields per well were imaged with 2 channels at 20x magnification (2×2 pixel binning). Excitation/emission wavelengths of 365 ± 50/535 ± 45 nm were used for Hoechst detection in channel 1 and 474 ± 40/535 ± 45 nm were used for calcein detection in channel 2.
(§3) Nuclei were identified in channel 1 depending on intensity, area, size and shape. Their outlines were expanded by 3.2 μm to define a virtual cell soma area (VCSA), which was bigger than the average cell soma to prevent false positive NAs. All calcein-positive pixels were defined as viable cellular structures (VCSs). The NA was automatically calculated by excluding the VCSAs from the VCSs. Furthermore all nuclei co-localizing with VCSs were defined as alive.

[2] = tested on: human dopaminergic neurons (LUHMES cells); experiment: as above; type: cell-based; settings: for EC50: mature LUHMES d6, 24 h exposure, read-out: EC50 (half-maximal cytotoxic potency), cell viability
Description: as §1, §2, §3

[3] = tested on: Neisseria gonorrhoeae MS11; experiment: Bacterial growth assay; type: cell-based; settings: 20 μM, log growth phase
Description: Neisseria gonorrhoeae MS11 was cultured in PPM medium (15 g/l Proteose Pepton, 1 g/l soluble starch, 5 g/l NaCl, 4 g/l KH2PO4, 1 g/l K2HPO4, pH 7.5) for liquid culture and on GC plates (BD Difco™ GC Medium Base), both supplemented with 1 % vitamin mix (100 g/l glucose, 10 g/l glutamine, 26 g/l L-cysteine, 100 mg/l carboxylase, 250 mg/l NAD, 500 μl/l Fe(NO3)3, 150 mg/l arginine, 3 mg/l thiamine-HCl, 10 mg/l vitamine B12, 13 mg/l p-amino benzoic acid, 1.1 g/l L-cystine, 1 g/l adenine, 500 mg/l uracil, 30 mg/l guanine). Strains were either cultivated at 37 °C and 220 rpm (liquid medium) or at 37 °C and 5 % CO2 (solid medium).
Bacteria were grown as described above on solid medium. Prior to substance exposure, bacteria were pre-cultured in liquid medium for at least 2 h. Optical density was determined and a volume equal to an OD550 of 0.2 for Neisseria gonorrhoeae MS11 (equates a final OD550 of 0.04) and an OD600 of 0.2 for Enterococcus faecalis (equates a final OD600 of 0.04) was inoculated into 5 ml of the respective liquid medium. Compound was added at the indicated amounts. […] Samples were incubated for either 10.5 h, until they reached a stationary phase (three measured values in stationary phase) or until they reached an OD of 2.5. Optical density was determined every 0.5 h at OD550 for Neisseria gonorrhoeae MS11 and at OD600 for Enterococcus faecalis. […]

other neurons = experiment: Toxicity for other neurons (abstract summary); type: cell-based; settings: Homo sapiens, Neuron, read-out: half-maximal toxicity for other neurons
[4] = tested on: Mixed central nervous system neurons (CNS.4U); experiment: iPSC-derived neuron viability, calcein-AM & H-33342 imaging; type: cell-based, human; settings: 24 h, at higher concentrations than LUHMES
Description: (§4) Commercial preparation of iPSC-derived neurons (Cortex.4U and CNS.4U) were handled and used as described by the manufacturer (nCardia). In brief, plates were coated with 10 μg/ml PLO, 10 μg/ml laminin and 10 μg/ml fibronectin. Cells were thawed and immediately seeded onto 96-well plates in their respective culture media (Cortex.4U: Cortex.4U™ culture medium with Cortex.4U™ supplement; CNS.4U: Neuro.4U Basal Medium [Ax-M-NBM250] with Neuro-Supplement 2 [Ax-M-DCS-DA]) to be used in neurite outgrowth assays.
(§5) The assays were performed as described previously ([Hoelting et al., 2016]; [Klima et al., 2021]; [Krug et al., 2013]). In brief, 30′000 cells per well were seeded on d2 (LUHMES) / d0 (peripheral neurons, Cortex.4U, CNS.4U) in their respective differentiation media into standard pre-coated 96-well plates. They were incubated for 1 h at 37 °C and 5% CO2 before treatment. 24 h after treatment the Calcein/Hoechst readout was performed.
as §2

[5] = tested on: Cortical neurons (Cortex.4U); experiment: as above; type: cell-based, human
Description: as §4, §5, §2

Structure (SMILES): OCC1CSC(c2ccccc2O)=N1 (stereo not drawn) [aerugine, 2-[4-(hydroxymethyl)-4,5-dihydro-1,3-thiazol-2-yl]phenol]
- EC50 at 24 h [1]: 4.1 ± 0.8 µM
- cytotoxicity to DAergic neurons (viability) ([2]; d6 LUHMES, 24 h (24 h and 48 h for purified compounds)): cytotoxic to DAergic neurons in a time- and concentration-dependent manner
- effect on neurite area ([2]; d6 LUHMES, 24 h assay setup): affected neurites to the same extent and at similar concentrations as cell bodies
- cytotoxic potency range ([2]; d6 LUHMES, purified compound): low μM range
- EC50 ([2]; listed as Aerugine): 3 to 4 µM
- EC50 [2]: 3.1 ± 0.7 µM
- increase of aerugine sensitivity by neuronal maturity state ([2]; mature vs proliferating LUHMES): approximately three-fold
- viability or growth [3]: not affected in viability or growth
- EC50 (other neurons): 10 to 20 µM
- effect on cell viability [4]: clearly affected by aerugine
- effect on cell viability ([5]; 24 h): sensitive to aerugine
- fold higher toxic concentration than for DA neurons (mature LUHMES) ([5]; cortical neurons vs mature LUHMES): about 50 x
